{"source": "patent US20160303133A1", "about": "“TREATMENT OF GASTROINTESTINAL AND OTHER DISORDERS” (NUMEDII, INC., priority 2013, published 2016)", "key": {"[1]": {"tested_on": "prophylactic TNBS rat colitis model", "experiment": "TNBS dose escalation study, colon histopathology (Example 4)", "format": "in vivo, Sprague-Dawley (SD) rats", "parameters": "key to colon necrosis: no: 0=No necrosis; very minimal: 0.5=Very minimal, focal, affects <2% of the total colon; minimal: 1.0=Minimal focal or multifocal, affects 2-10% of the total colon; mild: 2.0=Mild, focal or multifocal, affects 11-25% of the total colon; moderate: 3.0=Moderate focal or multifocal, affects 26-50% of the total colon; marked: 4.0=Marked focal or multifocal, affects 51-75% of the total colon; severe: 5.0=Severe affects >75% of the total colon", "text": "Inflammation—neutrophil and macrophage infiltration predominantly, fibroplasia and neovascularization in areas of transmural necrosis 0=No inflammation 0.5=Very minimal focal infiltrates in mucosa only, affects <2% of the total colon 1.0=Minimal multifocal infiltrates in mucosa only, affects 2-10% of the total colon 2.0=Mild multifocal infiltrates affecting mucosa, submucosa, outer muscle layers and serosa, affects 11-25% of the total colon 3.0=Moderate multifocal infiltrates affecting mucosa, submucosa, outer muscle layers and serosa, affects 26-50% of the total colon 4.0=Marked multifocal to diffuse infiltrates affecting mucosa, submucosa, outer muscle layers and serosa, affects 51-75% of the total colon 5.0=Severe multifocal to diffuse infiltrates affecting mucosa, submucosa, outer muscle layers and serosa, affects >75% of the total colon. Necrosis—measure the total length of all colon sections, measure the total length of necrotic mucosa devoid of epithelium to determine % area affected 0=No necrosis 0.5=Very minimal, focal, affects <2% of the total colon 1.0=Minimal focal or multifocal, affects 2-10% of the total colon 2.0=Mild, focal or multifocal, affects 11-25% of the total colon 3.0=Moderate focal or multifocal, affects 26-50% of the total colon 4.0=Marked focal or multifocal, affects 51-75% of the total colon 5.0=Severe, affects >75% of the total colon Sprague-Dawley (SD) rats 118 (male, 180-200 g) were assigned to 11 groups of 10 or 12 rats per group so that each group has approximately the same mean weight. (Day −1) Initiate daily dosing of Groups 1-11 as in TABLE 1. Rats are deprived of food for 24 hours prior to disease initiation. 1) Intra-rectal (IR) administration is accomplished by briefly anesthetizing the rats, administering the test material at 10 ml/kg via a 20 gauge feeding needle inserted via the rectum, maintaining the rat in an inverted position with anus pinched shut until recovered from anesthesia. 2) Oral formulations are first dissolved in 0.05N acetic acid and pH adjusted to 6-7 with 0.1N NaOH. [table] (DAY 0) Prepare TNBS Solution (50% TNBS: 50% 200 proof ethanol; 16 mg/ml TNBS). Dose as in TABLE 3. After 1 hour, rats in Groups 2-11 are administered TNBS. Anesthetize rats and administer 64 mg/kg (4 ml/kg) TNBS Solution into colon of each rat, then re-feed rats. (DAY 7): Rats are weighed and dosed as in Table 3. […]. Terminal blood samples are collected from anesthetized rats. Samples are collected in pre-chilled-tubes and processed to serum. Store serum at −80° C. in several aliquots. A midline incision is made on each animal. Colon is removed and length measured and recorded. A longitudinal incision is made on each colon. Fecal material is gently washed away with saline. Excess fluid is gently blotted and colon weighed. The severity of IBD is assessed using the following scoring system: maximum score=10 • 1) Adhesions: • none=0 • minimal=1 • involving several bowel loops=2 • 2) Strictures: • none=0 • mild=1 • moderate=2 • severe, proximal dilatation=3 • 3) Ulcers: • none=0 • inear ulceration <1 cm=1 • two linear ulcers <1 cm=2 • more sites of ulceration or one large ulcer=3 • 4) Wall thickness: • less than 1 mm=0 • 1-3 mm=1 • >3 mm=2 A section of colon is preserved in 10 volumes of 10% neutral buffered formalin for histopathology. A section of colon is homogenized in PBS, centrifuged, and aliquots of the homogenate in labeled Eppendorf tubes are stored at −80° C. for cytokine analysis."}, "[2]": {"tested_on": "TNBS (2,4,6-trinitrobenzenesulfonic acid) rat colitis model", "experiment": "Prophylactic efficacy study in TNBS rat colitis model, colon histopathology (Example 3)", "format": "in vivo, Sprague-Dawley rats", "protocol": "Prophylactic efficacy study in TNBS (2,4,6-trinitrobenzenesulfonic acid) rat colitis model.\nPreparation of doses: For Groups 1, 2: 50 ml 0.1M acetic acid and 30 ml sterile water were combined. The pH was adjusted from 4.45 to 6.7 with 0.1N NaOH. The stir bar was removed and the solution made up to 100 ml with sterile water. For Group 3, 133.9 mg prednisolone 21-hemisuccinate sodium salt was dissolved in 100 ml de-ionized water to prepare a 1 mg/ml solution. For Group 4, 600 mg Nadolol was dissolved in 50 ml 0.1M acetic acid and 30 ml sterile water. The pH was adjusted from 4.45 to 6.7 with 0.1N NaOH, and the solution made up to 100 ml with sterile water. For Group 5, 1.2 g Nadolol was dissolved in 50 ml 0.1M acetic acid and 30 ml sterile water. The pH was adjusted from 4.45 to 6.7 with 0.1N NaOH and the solution made up to 100 ml with sterile water. For Group 6: 1 g cellulose gum was dissolved in 50 ml 0.1N acetic acid and 30 ml de-ionized water. The volume was made up to 100 ml with sterile water. For Group 7, 600 mg Nadolol was dissolved in 50 ml 0.1M acetic acid and 30 ml sterile water. 1 g cellulose gum was added and dissolved into the solution and the solution made up to 100 ml with sterile water. For Group 8, 1.2 g Nadolol was dissolved in 50 ml 0.1M acetic acid and 30 ml sterile water. 1 g cellulose gum was added and dissolved into the solution and the solution made up to 100 ml with sterile water.\n(Day −1) 84 Sprague-Dawley rats (male, 160-180 g each) were sorted into treatment groups based upon average body weight. The rats were weighed and food-deprived. The rats in groups 1-5 were dosed orally (PO) at 10 ml/kg with their respective solutions according to Table 2. The rats in Groups 6-8 were anesthetized intra-rectally (IR) instilled with 10 ml/kg of their respective treatment according to Table 2, the anus was pinched closed and the rat held inverted until recovered from anesthesia (at least 1 min).\nAfter 24 hours (day 0), an aqueous solution of TNBS (2,4,6-trinitrobenzenesulfonic acid) 16 mg/ml in 50% ethanol was made and the rats were weighed and dosed as in TABLE 2. One hour later, the rats anesthetized and Groups 2-8 were intra-rectally instilled with 4 ml/kg TNBS solution (64 mg/kg), the anus was pinched closed and the rat held inverted until recovered from anesthesia (at least 1 min). Group 1 received de-ionized water. The rats were re-fed after recovery from TNBS instillation.\nThe rats were weighed and dosed as in TABLE 2 each day for the next six days (day 2-7), The rats were anesthetized and exsanguinated into pre-chilled serum separator tubes, the blood processed to serum which was stored in several aliquots at −80° C. A midline incision was made in the abdomen and the colon was evaluated for adhesions and stricture. The colon was removed and the length recorded. A midline incision was made the entire length of the colon, the contents removed and the colon weight and colon wall thickness recorded. A section of the colon was preserved in 20 volumes of 10% neutral buffered formalin. The end of the colon section at the rectal end of the section was edged with Evans Blue dye for orientation purposes. Another section of the colon was weighed and homogenized on an ice batch in 5 ml PBS. The homogenate was centrifuged and aliquots stored in labeled Eppendorf tubes at −80° C. The following parameters were used to determine colonic score: • Colonic Score Parameters • a) Adhesions: • 1) none=0 • 2) minimal=1 • 3) involving several bowel loops=2 • b) Strictures: • 1) none=0 • 2) mild=1 • 3) moderate=2 • 4) severe, proximal dilatation=3 • c) Ulcers: • 1) none=0 • 2) linear ulceration <1 cm=1 • 3) two linear ulcers <1 cm=2 • 4) more sites of ulceration or one large ulcer=3 • d) Wall thickness: • 1) less than 1 mm=0 • 2) 1-3 mm=1 • 3) >3 mm=2\nThe formalin-preserved colon samples were submitted for histological preparation and evaluation. […]"}, "[3]": {"details": "60 mpk, FIG. 5c (route not given, IR by group order of Table 2)"}, "[4]": {"details": "60 mpk, FIG. 4d (route not given, PO by group order of Table 2)"}, "[5]": {"details": "120 mpk, FIG. 5a (route not given, PO by group order of Table 2)"}, "[6]": {"details": "120 mpk, FIG. 5d (route not given, IR by group order of Table 2)"}, "[7]": {"details": "10 mpk, FIG. 4c, animal with approximate mean summed score for the group"}}, "data": [{"compound": "CC(C)(C)NCC(O)COc1cccc2c1CC(O)C(O)C2", "note": "(centres unmarked) [nadolol]", "values": [{"measurement": "colon inflammation", "setting": "[1]; IR 6 mpk, FIG. 12i", "result": "mild (2.0=Mild multifocal infiltrates affecting mucosa, submucosa, outer muscle layers and serosa, affects 11-25% of the total colon)"}, {"measurement": "colon necrosis", "setting": "[1]; IR 6 mpk, FIG. 12i", "result": "no"}, {"measurement": "colon inflammation", "setting": "[1]; IR 19 mpk, FIG. 12j", "result": "moderate (3.0=Moderate multifocal infiltrates affecting mucosa, submucosa, outer muscle layers and serosa, affects 26-50% of the total colon)"}, {"measurement": "colon necrosis", "setting": "[1]; IR 19 mpk, FIG. 12j", "result": "mild (2.0=Mild, focal or multifocal, affects 11-25% of the total colon)"}, {"measurement": "colon inflammation", "setting": "[1]; IR 60 mpk, FIG. 12k", "result": "severe (5.0=Severe multifocal to diffuse infiltrates affecting mucosa, submucosa, outer muscle layers and serosa, affects >75% of the total colon)"}, {"measurement": "colon necrosis", "setting": "[1]; IR 60 mpk, FIG. 12k", "result": "severe (5.0=Severe affects >75% of the total colon)"}, {"measurement": "colon inflammation", "setting": "[1]; PO 6 mpk, FIG. 12d", "result": "mild (2.0=Mild multifocal infiltrates affecting mucosa, submucosa, outer muscle layers and serosa, affects 11-25% of the total colon)"}, {"measurement": "colon necrosis", "setting": "[1]; PO 6 mpk, FIG. 12d", "result": "severe (5.0=Severe affects >75% of the total colon)"}, {"measurement": "colon inflammation", "setting": "[1]; PO 19 mpk, FIG. 12e", "result": "marked (4.0=Marked multifocal to diffuse infiltrates affecting mucosa, submucosa, outer muscle layers and serosa, affects 51-75% of the total colon)"}, {"measurement": "colon necrosis", "setting": "[1]; PO 19 mpk, FIG. 12e", "result": "marked (4.0=Marked focal or multifocal, affects 51-75% of the total colon)"}, {"measurement": "colon inflammation", "setting": "[1]; PO 60 mpk, FIG. 12f", "result": "severe (5.0=Severe multifocal to diffuse infiltrates affecting mucosa, submucosa, outer muscle layers and serosa, affects >75% of the total colon)"}, {"measurement": "colon necrosis", "setting": "[1]; PO 60 mpk, FIG. 12f", "result": "severe (5.0=Severe affects >75% of the total colon)"}, {"measurement": "colon inflammation", "setting": "[1]; PO 120 mpk, FIG. 12g", "result": "mild (2.0=Mild multifocal infiltrates affecting mucosa, submucosa, outer muscle layers and serosa, affects 11-25% of the total colon)"}, {"measurement": "colon necrosis", "setting": "[1]; PO 120 mpk, FIG. 12g", "result": "no"}, {"measurement": "colon inflammation", "setting": "[2]; [3]", "result": "moderate (3.0=Moderate multifocal infiltrates affecting mucosa, submucosa, outer muscle layers and serosa, affects 26-50% of the total colon)"}, {"measurement": "colon necrosis", "setting": "[2]; [3]", "result": "moderate (3.0=Moderate focal or multifocal, affects 26-50% of the total colon)"}, {"measurement": "colon inflammation", "setting": "[2]; [4]", "result": "moderate (3.0=Moderate multifocal infiltrates affecting mucosa, submucosa, outer muscle layers and serosa, affects 26-50% of the total colon)"}, {"measurement": "colon necrosis", "setting": "[2]; [4]", "result": "moderate (3.0=Moderate focal or multifocal, affects 26-50% of the total colon)"}, {"measurement": "colon inflammation", "setting": "[2]; [5]", "result": "moderate (3.0=Moderate multifocal infiltrates affecting mucosa, submucosa, outer muscle layers and serosa, affects 26-50% of the total colon)"}, {"measurement": "colon necrosis", "setting": "[2]; [5]", "result": "mild (2.0=Mild, focal or multifocal, affects 11-25% of the total colon)"}, {"measurement": "colon inflammation", "setting": "[2]; [6]", "result": "mild (2.0=Mild multifocal infiltrates affecting mucosa, submucosa, outer muscle layers and serosa, affects 11-25% of the total colon)"}, {"measurement": "colon necrosis", "setting": "[2]; [6]", "result": "mild (2.0=Mild, focal or multifocal, affects 11-25% of the total colon)"}]}, {"compound": "C[C@]12C=CC(=O)C=C1CC[C@@H]1[C@@H]2[C@@H](O)C[C@@]2(C)[C@H]1CC[C@]2(O)C(=O)CO", "note": "[prednisolone]", "values": [{"measurement": "colon inflammation", "setting": "[1]; PO 10 mpk, FIG. 12c", "result": "minimal (1.0=Minimal multifocal infiltrates in mucosa only, affects 2-10% of the total colon)"}, {"measurement": "colon necrosis", "setting": "[1]; PO 10 mpk, FIG. 12c", "result": "minimal (1.0=Minimal focal or multifocal, affects 2-10% of the total colon)"}, {"measurement": "colon inflammation", "setting": "[2]; [7]", "result": "minimal (1.0=Minimal multifocal infiltrates in mucosa only, affects 2-10% of the total colon)"}, {"measurement": "colon necrosis", "setting": "[2]; [7]", "result": "very minimal (0.5=Very minimal, focal, affects <2% of the total colon)"}]}]}
